Source: patent US20050282743A1, “Molecular interactions in cells” (Arbor Vita Corporation, priority 2001, published 2005)
Ends that are not written are not given here. Peptide text beside a SMILES is read from it. * marks the point of attachment. Biotin = O=C1N[C@H]2[C@H](CS[C@H]2CCCCC(=O)*)N1

molecular target: T1, PDZ protein (GST-PDZ fusion) (Homo sapiens, UniProt O00560); test: G' assay (10 uM PL peptide), results of TABLE 7 and TABLE 12; format: binding; conditions: PDZ hSyntenin, PDZ Domain 1
T1 construct: made in house; host or cells: E. coli (DH5alpha, BL21 or JM109)
T1 sequence (O00560 1-298): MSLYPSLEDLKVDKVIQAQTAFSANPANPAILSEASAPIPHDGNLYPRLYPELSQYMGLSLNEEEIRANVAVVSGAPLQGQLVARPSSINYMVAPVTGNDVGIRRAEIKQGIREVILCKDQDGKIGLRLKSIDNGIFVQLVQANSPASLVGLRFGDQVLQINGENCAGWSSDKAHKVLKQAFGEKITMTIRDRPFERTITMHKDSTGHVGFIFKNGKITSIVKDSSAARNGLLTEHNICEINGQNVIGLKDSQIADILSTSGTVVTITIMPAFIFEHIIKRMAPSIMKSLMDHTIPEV
Method in brief: (§1)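 Biotinylated PL peptides at 10 uM (vs 20 uM in G^0 assay) bound to GST-PDZ fusions; PDZ protein at 5 ug/ml unless another concentration listed. Bound peptide read as A450 nm, classified 0–5 (0 = A450 0; 5 = A450 >4 repeated).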

Row | Classification | Molecule
1 | 3 (A450 nm 2-3) | CC[C@H](C)[C@H](NC(=O)[C@H](Cc1ccc(O)cc1)NC(=O)[C@@H](NC(=O)[C@@H]1CCCN1C(=O)[C@H](CCC(N)=O)NC(=O)[C@H](CCC(=O)O)NC(=O)[C@H](CCC(N)=O)NC(=O)[C@H](C)NC(=O)[C@@H](NC(=O)[C@H](CC(C)C)NC(=O)[C@H](CC(C)C)NC(=O)[C@H](CCCNC(=N)N)NC(=O)[C@H](Cc1ccc(O)cc1)NC(=O)[C@H](CCSC)NC(=O)[C@H](C)NC(=O)[C@H](C)NC(=O)[C@@H]1CCCN1C(=O)[C@H](CCSC)NC(=O)[C@@H](NC(=O)[C@H](CCCCN)NC(=O)CCCC[C@@H]1SC[C@@H]2NC(=O)N[C@@H]21)[C@@H](C)O)[C@@H](C)O)C(C)C)C(=O)O [MINT-1] (Biotin-KTMPAAMYRLLTAQEQPVYI-OH; C-terminus assumed)
2 | 2 (A450 nm 1-2) | ELLQFCRTPNPALKNGQYWV (Biotin-ELLQFCRTPNPALKNGQYWV)
3 | 2 (A450 nm 1-2) | KTMPAAMFRLLTGQETPLYI (Biotin-KTMPAAMFRLLTGQETPLYI) [MINT-2]

molecular target: T2, PDZ protein (GST-PDZ fusion) (Homo sapiens, UniProt Q9UPQ7); test: as above; format: binding; conditions: PDZ KIAA1095, PDZ Domain 1
T2 construct: made in house; host or cells: E. coli (DH5alpha, BL21 or JM109)
T2 sequence (Q9UPQ7 1-1066): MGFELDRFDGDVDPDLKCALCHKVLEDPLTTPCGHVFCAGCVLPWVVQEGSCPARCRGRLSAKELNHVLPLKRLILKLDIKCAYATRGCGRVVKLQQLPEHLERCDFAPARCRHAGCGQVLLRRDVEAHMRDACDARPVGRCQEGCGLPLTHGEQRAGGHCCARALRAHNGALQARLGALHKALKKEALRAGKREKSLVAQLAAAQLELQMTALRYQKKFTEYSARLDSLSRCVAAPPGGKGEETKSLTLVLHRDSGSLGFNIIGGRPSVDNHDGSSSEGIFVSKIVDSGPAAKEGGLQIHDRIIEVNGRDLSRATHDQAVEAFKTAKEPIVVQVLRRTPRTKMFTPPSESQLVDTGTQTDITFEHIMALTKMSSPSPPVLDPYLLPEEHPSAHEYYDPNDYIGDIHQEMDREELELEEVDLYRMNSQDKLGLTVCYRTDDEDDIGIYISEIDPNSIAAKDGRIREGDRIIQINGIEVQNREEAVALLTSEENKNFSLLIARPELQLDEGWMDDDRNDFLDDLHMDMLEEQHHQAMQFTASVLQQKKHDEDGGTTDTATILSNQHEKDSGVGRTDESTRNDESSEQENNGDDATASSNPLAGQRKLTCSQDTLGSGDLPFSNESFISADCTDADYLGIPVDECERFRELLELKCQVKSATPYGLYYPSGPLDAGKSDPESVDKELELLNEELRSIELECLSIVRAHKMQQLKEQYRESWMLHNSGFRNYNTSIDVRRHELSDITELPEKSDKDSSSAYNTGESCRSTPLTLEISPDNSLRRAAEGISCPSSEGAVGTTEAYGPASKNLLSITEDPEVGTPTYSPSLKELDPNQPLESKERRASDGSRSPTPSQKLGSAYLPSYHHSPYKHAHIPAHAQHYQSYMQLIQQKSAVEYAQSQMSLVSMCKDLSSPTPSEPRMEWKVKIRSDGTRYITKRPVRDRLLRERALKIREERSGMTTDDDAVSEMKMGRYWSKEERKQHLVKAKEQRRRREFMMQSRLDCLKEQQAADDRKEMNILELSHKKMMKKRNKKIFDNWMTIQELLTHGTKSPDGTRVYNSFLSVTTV
Method in brief: as §1

Row | Molecule | Classification
4 | CC(C)C[C@H](NC(=O)[C@H](C)NC(=O)[C@@H](NC(=O)[C@H](CCC(=O)O)NC(=O)[C@H](CCCNC(=N)N)NC(=O)[C@H](CCCNC(=N)N)NC(=O)CNC(=O)[C@H](CCC(N)=O)NC(=O)[C@H](CC(C)C)NC(=O)[C@H](CCCNC(=N)N)NC(=O)CNC(=O)CNC(=O)[C@H](CCCNC(=N)N)NC(=O)[C@H](C)NC(=O)[C@H](CO)NC(=O)[C@H](CCCNC(=N)N)NC(=O)CNC(=O)CNC(=O)[C@H](C)NC(=O)[C@H](C)NC(=O)CCCC[C@@H]1SC[C@@H]2NC(=O)N[C@@H]21)[C@@H](C)O)C(=O)O [HPV E6 33 (modified)] (Biotin-AAGGRSARGGRLQGRRETAL-OH; C-terminus assumed) | 5 (A450 nm of 4 more than 2× repeated)
5 | TQGFPGPATWRRISSLESEV | 1 (A450 nm 0-1)
6 | CC(C)C[C@H](NC(=O)[C@H](CCCNC(=N)N)NC(=O)CNC(=O)CNC(=O)[C@H](CCCNC(=N)N)NC(=O)[C@H](C)NC(=O)[C@@H]1CCCN1C(=O)[C@H](CCCNC(=N)N)NC(=O)CNC(=O)CNC(=O)[C@@H](NC(=O)[C@H](C)NC(=O)CCCC[C@@H]1SC[C@@H]2NC(=O)N[C@@H]21)C(C)C)C(=O)N[C@@H](CCC(N)=O)C(=O)NCC(=O)N[C@@H](CCCNC(=N)N)C(=O)N[C@@H](CCCNC(=N)N)C(=O)N[C@@H](CCC(N)=O)C(=O)N[C@H](C(=O)N[C@@H](CCC(N)=O)C(=O)N[C@H](C(=O)O)C(C)C)[C@@H](C)O [HPV E6 58 (modified)] (Biotin-AVGGRPARGGRLQGRRQTQV-OH; C-terminus assumed) | 1 (A450 nm 0-1)
7 | CSCC[C@H](NC(=O)[C@H](C)NC(=O)[C@H](CCCNC(=N)N)NC(=O)CNC(=O)[C@@H](NC(=O)[C@H](Cc1c[nH]c2ccccc12)NC(=O)[C@H](CCCNC(=N)N)NC(=O)CNC(=O)CCCC[C@@H]1SC[C@@H]2NC(=O)N[C@@H]21)[C@@H](C)O)C(=O)N[C@@H](CO)C(=O)N[C@@H](C)C(=O)N[C@@H](Cc1c[nH]c2ccccc12)C(=O)N[C@@H](CCCCN)C(=O)N1CCC[C@H]1C(=O)N[C@H](C(=O)N[C@@H](CCCNC(=N)N)C(=O)N[C@@H](CCCNC(=N)N)C(=O)N[C@@H](CCC(=O)O)C(=O)N[C@H](C(=O)N[C@@H](CCC(=O)O)C(=O)N[C@H](C(=O)O)C(C)C)[C@@H](C)O)[C@@H](C)O [HPV E6 #35 (modified)] (Biotin-GRWTGRAMSAWKPTRRETEV-OH; C-terminus assumed) | 4 (A450 nm 3-4)
8 | CC[C@H](C)[C@H](NC(=O)CNC(=O)[C@H](CO)NC(=O)[C@H](Cc1ccccc1)NC(=O)[C@@H](NC(=O)[C@H](CS)NC(=O)CNC(=O)CNC(=O)[C@H](C)NC(=O)[C@@H]1CCCN1C(=O)[C@@H](NC(=O)[C@@H]1CCCN1C(=O)CCCC[C@@H]1SC[C@@H]2NC(=O)N[C@@H]21)[C@@H](C)CC)[C@@H](C)O)C(=O)N[C@@H](Cc1ccccc1)C(=O)N1CCC[C@H]1C(=O)N[C@H](C(=O)N[C@@H](CC(C)C)C(=O)N[C@H](C(=O)N[C@@H](CO)C(=O)N1CCC[C@H]1C(=O)N[C@@H](CC(C)C)C(=O)O)[C@@H](C)O)[C@@H](C)O [KIA 1481] (Biotin-PIPAGGCTFSGIFPTLTSPL-OH; C-terminus assumed) | 1 (A450 nm 0-1)
